Data set [1] deals with Panc02 cells. The data set is described as follows: Example 6: bilateral Panc02 model, i.t. MBTA + DON i.t. (left tumor) versus i.p. In kind it is in vivo, C57BL/6 mice. To be noted: with MBTA in right tumor, days 1,8,15,22,29. The procedure: (§1) Subcutaneous transplantation: Mice were subcutaneously injected with 4×10^5 Panc02 cells in 0.1 ml DMEM or 4×10^5 B16-F10 cells in 0.1 ml RPMI 1640 medium without additives into pre-shaved groin (right or both right and left).
(§2) MBTA immunotherapy: 50 μl of the therapeutic mixture consisting of 0.5 mg R-848, HCl form+0.5 mg poly (I:C), 0.5 mg LTA and 0.4 mg anti-CD40/ml of 0.2 mM mannan-BAM in PBS was administered intratumorally on days 0, 1, 2, 8, 9, 10, 16, 17, 18, 24, 25, and 26. The combination of R-848, poly (I:C), LTA, mannan-BAM and anti-CD40 antibody is hereinafter referred to as ‘MBTA’. In the case of the bilateral Panc02 tumor model, MBTA therapy was always injected only into the right subcutaneous tumor.
(§3) Evaluation of treatment: Tumor sizes were measured every other day using a digital calliper. The formula V=(π/6)AB^2, A being the largest tumor size, B being the smallest tumor size, was used to calculate tumor volume.
(§4) The areas under the curves (AUC) were calculated to evaluate tumor growth. The obtained values were statistically evaluated by one-way ANOVA with unequal post hoc test. Kaplan-Meier survival curves were evaluated using the long-rank test. STATISTICA 12 software (StatSoft, Inc., Tulsa, OK, USA) was used for all statistical evaluations. Error bars represent standard error of the mean (SEM). […]

The test system of data set [2] is Panc02 cells. The data set is described as follows: Example 4: bilateral Panc02 model, i.t. MBTA + i.p. DON in two timing regimes. In kind it is in vivo. To be noted: for prolongation of mice survival: FIG. 4C. The procedure:
as §1, §2, §3
The areas under the curves (AUC) were calculated to evaluate tumor growth. The obtained values were statistically evaluated by one-way ANOVA with unequal post hoc test. Kaplan-Meier survival curves were evaluated using the long-rank test. STATISTICA 12 software (StatSoft, Inc., Tulsa, OK, USA) was used for all statistical evaluations. Error bars represent standard error of the mean (SEM).
To improve MBTA/DON combined therapy outcomes we tested the intraperitoneal administration of DON in combination with i.t. MBTA therapy. The total amount of DON (2 mg/mouse/therapy) was applied in two different regimes as further specified.
C57BL/6 mice were s.c. inoculated with Panc02 cells in both right and left flank. After 12 days, mice were randomized into four groups (n=6/group): Group treated with PBS applied in the right tumor; group treated with MBTA applied in the right tumor; group treated with MBTA applied in the right tumor, and DON applied i.p. (13 doses); group treated with MBTA applied in the right tumor, and DON applied i.p. (5 doses, red). MBTA (PBS in the control group) was applied in pulse regime on days 0, 1, 2, 8, 9, 10, 16, 17, 18, 24, 25, and 26. DON was administered i.p. on days 5, 13, 21, 29, 37 (400 μg) and 1, 3, 5, 7, 9, 11, 13 15 17 19 21, 23, 25 (154 μg), respectively.
FIG. 4A, B: Growth of right/left tumors. Statistical analysis was performed by calculating AUC (area under the curve) values using a one-way ANOVA test with Tukey's post hoc test (* p<0.05, **** p<0.001, ***** p<0.0005), FIG. 4 C: Survival analysis.

For data set [3], the system named is Panc02 cells. The experiment in a line: Example 7: bilateral Panc02 model, i.t. MBTA + i.p. DON, efficacy and side effects. It is filed as in vivo. Conditions: DON 400 μg i.p., days 1,8,15,22,29, with i.t. MBTA. The procedure:
as §1, §2, §3, §4

The subject of data set [4] is Panc02 cells. The data set is described as follows: Example 5: bilateral Panc02 model, i.t. MBTA + s.c. DON in different dosages. It is filed as in vivo, C57BL/6 mice. Conditions: with i.t. MBTA, DON s.c. 80 μg or 400 μg, days 1,9,17,25,33. The procedure: as §1, §2, §3, §4

On to `[N-]=[N+]=CC(=O)CC[C@H](N)C(=O)O` [DON, 6-diazo-5-oxo-norleucine], for which the “survival of treated mice” value in the data set on Panc02 cells [1] (DON 400 μg i.p., FIG. 6C) is recorded as “significantly prolonged”. For the same compound, in the data set on Panc02 cells [1] (DON 400 μg i.t. in left tumor, FIG. 6), the “efficacy of the therapy” value is given as “did not improve the efficacy”. The “early deaths of treated mice” value is “did not observe any early deaths” in the data set on Panc02 cells [2] (DON i.p. with a sufficient interval between each application, with i.t. MBTA (summary of Examples 4 to 6)) and “No early deaths” in the data set with Panc02 cells [4] (FIG. 5C). For the same compound, the “prolongation of mice survival” value is on record as “evident but not statistically significant” in the data set on Panc02 cells [2] (with i.t. MBTA, DON i.p. 154 μg, 13 doses, every other day) and “evident but not statistically significant” in the data set on Panc02 cells [2] (with i.t. MBTA, DON i.p. 400 μg, 5 doses). For the same compound, the “tolerability of regime / early death” value in the data set with Panc02 cells [2] (with i.t. MBTA, DON i.p. every other day (154 μg, 13 doses), n=6/group) was “too aggressive and resulted in early death of three mice”. The “water and food consumption” value in the data set on Panc02 cells [3] (FIG. 7D, E) was “without any influence”. Besides, the “weight of treated mice” value with Panc02 cells [3] (FIG. 7F) is listed as “without any influence”. Also, the “reduction of tumor growth, compared to i.p. administration of DON (Example 4)” value with Panc02 cells [4] (FIG. 5A, B) was “less evident”.

The values are drawn from patent US20240424004A1, “COMBINATION OF TLR LIGANDS, COMPOUNDS LABELLING TUMORS FOR IMMUNE ATTACK, ANTI-CD40 ANTIBODIES AND INHIBITORS OF GLUTAMINE METABOLISM FOR TREATING CANCER” (priority 2021, published 2024).
